Tests used:
[1] = target: T1, RmHR (Rubricoccus marinus halorhodopsin) (Rubricoccus marinus, UniProt A0A259U296); experiment: biochemical; design: gene BSZ36_14690
[2] = target: T1, RmHR (Rubricoccus marinus halorhodopsin); experiment: normal-phase HPLC of extracted retinal oxime; assay type: binding; design: gene BSZ36_14690; full-length codon-optimised synthetic gene in pET21a, C-terminal His6; expressed in E. coli, DDM-solubilised, purified; details: covalent (Schiff base); 1 M NaCl, 25°C, dark or illuminated at 540 nm; retinal supplied during expression

T1 sequence (A0A259U296 entry or part of it): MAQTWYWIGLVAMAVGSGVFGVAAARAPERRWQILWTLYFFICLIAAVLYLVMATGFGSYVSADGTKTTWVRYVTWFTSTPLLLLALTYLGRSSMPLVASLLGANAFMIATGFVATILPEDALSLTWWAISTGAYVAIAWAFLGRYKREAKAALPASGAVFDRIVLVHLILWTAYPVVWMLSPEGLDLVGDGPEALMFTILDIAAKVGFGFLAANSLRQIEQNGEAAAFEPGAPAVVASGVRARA

Cl [Cl^−]
Kd [1]: 7.6 ± 1.7 mM

CC1=C(/C=C/C(C)=C/C=C/C(C)=C/C=O)C(C)(C)CCC1 [all-trans-retinal]
normal-phase HPLC of extracted retinal oxime [2]: RmHR predominantly possesses all-trans retinal as a chromophore
